One data set has as its target bNOS (Homo sapiens, UniProt P29475). Briefly: bNOS inhibition (method of Bredt and Snyder). The format is biochemical. The following applies: Proc. Natl. Acad. Sci. USA (1989) 86, 9030-9033. From the text:
The NOS-inhibitory action of the compounds of Formula (I) and their physiologically compatible salts can be determined according to the methods by Bredt and Snyder in Proc. Natl. Acad. Sci. USA (1989) 86, 9030-9033.

Consider `NC1=Nc2c(F)cccc2C2CCCC12F` (centres unmarked) [Example 2, 4-amino-3a,6-difluoro-2,3,3a,9b-tetrahydro-1H-cyclopenta[c]quinoline], for which the IC50 against bNOS was found to be 590 nM.
On to `NC1=Nc2ccc(Br)cc2C2CCCC12F` (centres unmarked) [Example 3, 4-Amino-8-bromo-3a-fluoro-2,3,3a,9b-tetrahydro-1H-cyclopenta[c]quinoline], for which the melting point is 220 °C.

Source of the values: patent US6579883B1, “Fluorinated 3,4-dihydroquinoline derivatives used as NOS inhibitors” (Schering Aktiengesellschaft, priority 1998, dated 2003).
